Values quoted from earlier work as cited in patent publication US20110250274A1, “ESTRIOL FORMULATIONS” (priority 2008, published 2011).

Key:
[1] = oral administration
[2] = compared with the other main human estrogens
[3] = intravaginal route, avoiding enterohepatic circulation

- share of the administered oral dose rapidly glucuro-conjugated by the liver [1]: ~90%
- share of the oral dose administered that reaches the systemic circulation [1]: 1-2%
- plasma levels of free estriol [3]: 20%
Compound: C[C@]12CC[C@@H]3c4ccc(O)cc4CC[C@H]3[C@@H]1C[C@@H](O)[C@@H]2O [Estriol, estra-1,3,5(10)-triene-3,16a,17β-triol]
- mitogenic activity [2]: no mitogenic activity
